According to PubChem BioAssay AID248 (DTP/NCI, 2004):
“And” between values parts separate entries of the source, which are not always exact repeats. Identical values can stand only once. Toxic doses and inconclusive results are not listed. No stated cut-off is given here; in the data, active means T/C of 150% or more; inactive means T/C below 125%.

Tested on: L1210 leukemia ip in BDF1 mice, survival T/C
Experiment: NCI In Vivo Anticancer Drug Screen. Data for tumor model L1210 Leukemia (intraperitoneal) in B6D2F1 (BDF1) mice
Details: endpoint: mean survival time, higher = longer survival
How it was run: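 Transplantable tumor model; survival measured in treated vs vehicle control mice. Value = treated/control.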

[1] = dose: 100.0 mg/kg/injection, schedule: Q04DX002 (ip), vehicle: saline
[2] = dose: 200.0 mg/kg/injection, schedule: Q04DX002 (ip), vehicle: saline
[3] = dose: 400.0 mg/kg/injection, schedule: Q04DX002 (ip), vehicle: saline
[4] = dose: 12.5 mg/kg/injection, schedule: Q01DX009 (ip), vehicle: Klucel (hydroxypropylcellulose) (HPC)
[5] = dose: 25.0 mg/kg/injection, schedule: Q01DX009 (ip), vehicle: Klucel (hydroxypropylcellulose) (HPC)
[6] = dose: 100.0 mg/kg/injection, schedule: Q04DX002 (ip), vehicle: Klucel (hydroxypropylcellulose) (HPC)
[7] = dose: 200.0 mg/kg/injection, schedule: Q04DX002 (ip), vehicle: Klucel (hydroxypropylcellulose) (HPC)
[8] = dose: 100.0 mg/kg/injection, schedule: Q04DX003 (ip), vehicle: saline
[9] = dose: 200.0 mg/kg/injection, schedule: Q04DX003 (ip), vehicle: saline
[10] = dose: 400.0 mg/kg/injection, schedule: Q04DX003 (ip), vehicle: saline
[11] = dose: 50.0 mg/kg/injection, schedule: Q01DX009 (ip), vehicle: saline with Tween-80
[12] = dose: 100.0 mg/kg/injection, schedule: Q01DX009 (ip), vehicle: saline with Tween-80
[13] = dose: 200.0 mg/kg/injection, schedule: Q01DX009 (ip), vehicle: saline with Tween-80
[14] = dose: 100.0 mg/kg/injection, schedule: Q04DX003 (ip), vehicle: saline with Tween-80
[15] = dose: 200.0 mg/kg/injection, schedule: Q04DX003 (ip), vehicle: saline with Tween-80
[16] = dose: 400.0 mg/kg/injection, schedule: Q04DX003 (ip), vehicle: saline with Tween-80
[17] = dose: 100.0 mg/kg/injection, schedule: Q01DX001 (ip), vehicle: carboxymethylcellulose (CMC)
[18] = dose: 200.0 mg/kg/injection, schedule: Q01DX001 (ip), vehicle: carboxymethylcellulose (CMC)
[19] = dose: 400.0 mg/kg/injection, schedule: Q01DX001 (ip), vehicle: carboxymethylcellulose (CMC)
[20] = dose: 100.0 mg/kg/injection, schedule: Q01DX001 (ip), vehicle: saline
[21] = dose: 200.0 mg/kg/injection, schedule: Q01DX001 (ip), vehicle: saline
[22] = dose: 400.0 mg/kg/injection, schedule: Q01DX001 (ip), vehicle: saline
[23] = dose: 400.0 mg/kg/injection, schedule: Q04DX002 (ip), vehicle: Klucel (hydroxypropylcellulose) (HPC)

Measured: T/C

CC(C)(C=O)C(=O)Nc1ccccc1
inactive: [1] 103 % of control | [2] 106 % of control | [3] 103 % of control

NC(CSS(=O)(=O)O)=NCc1ccsc1
inactive: dose: 6.25 mg/kg/injection, schedule: Q01DX009 (ip), vehicle: Klucel (hydroxypropylcellulose) (HPC) 96 % of control | [4] 104 % of control | dose: 12.5 mg/kg/injection, schedule: Q04DX002 (ip), vehicle: Klucel (hydroxypropylcellulose) (HPC) 100 % of control | [5] 101 % of control | dose: 25.0 mg/kg/injection, schedule: Q04DX002 (ip), vehicle: Klucel (hydroxypropylcellulose) (HPC) 95 % of control

NC1C(=O)NC(=O)NC1=O
inactive: dose: 50.0 mg/kg/injection, schedule: Q01DX009 (ip), vehicle: carboxymethylcellulose (CMC) 100 % of control | dose: 100.0 mg/kg/injection, schedule: Q01DX009 (ip), vehicle: carboxymethylcellulose (CMC) 103 % of control | [6] 102 % of control | dose: 200.0 mg/kg/injection, schedule: Q01DX009 (ip), vehicle: carboxymethylcellulose (CMC) 92 % of control | [7] 104 % of control

Cc1[nH]c(=O)[nH]c(=O)c1N(CCO)CCF
inactive: [8] 98 % of control | [9] 101 % of control | [10] 97 % of control

ClCCCCOCCl
inactive: [11] 101 % of control | [12] 97 % of control | [13] 87 % of control

CNC1(c2ccccc2)CC1
inactive: dose: 75.0 mg/kg/injection, schedule: Q04DX002 (ip), vehicle: saline 100 % of control | dose: 150.0 mg/kg/injection, schedule: Q04DX002 (ip), vehicle: saline 87 % of control

COc1ccc(C2(C(=O)O)CC2)cc1
inactive: [14] 96 % of control | [15] 97 % of control | [16] 94 % of control

CCOC(=O)C(C)(NC(C)=O)C(C)=O (stereo not given)
inactive: dose: 50.0 mg/kg/injection, schedule: Q01DX001 (ip), vehicle: carboxymethylcellulose (CMC) 106 % of control | [17] 114 % of control | [18] 101 % of control | [19] 92 % of control

O=S(=O)(O)C(Nc1ccccc1)c1ccccc1 (stereo not given)
inactive: [12] 100 % of control | [14] 97 % of control | dose: 150.0 mg/kg/injection, schedule: Q01DX001 (ip), vehicle: water 96 % of control | dose: 162.0 mg/kg/injection, schedule: Q01DX Z (ip), vehicle: carboxymethylcellulose (CMC) 95 % of control | [13] 96 % of control | [15] 101 % of control | dose: 300.0 mg/kg/injection, schedule: Q01DX001 (ip), vehicle: water 100 % of control | dose: 324.0 mg/kg/injection, schedule: Q01DX Z (ip), vehicle: carboxymethylcellulose (CMC) 94 % of control | dose: 400.0 mg/kg/injection, schedule: Q01DX009 (ip), vehicle: saline with Tween-80 101 % of control | dose: 400.0 mg/kg/injection, schedule: Q01DX015 (ip), vehicle: water 119 % of control | [16] 93 % of control | dose: 600.0 mg/kg/injection, schedule: Q01DX001 (ip), vehicle: water 96 % of control | dose: 600.0 mg/kg/injection, schedule: Q01DX015 (ip), vehicle: water 104 % of control | dose: 1200.0 mg/kg/injection, schedule: Q01DX001 (ip), vehicle: water 116 % of control

Cc1cc(=O)oc2cc(OS(C)(=O)=O)ccc12
inactive: [17] 113 % of control | [18] 107 % of control | [19] 98 % of control

CC(=O)C1C=NC(C)(C)C(C)(C)N=CC(C(C)=O)C(C)=NCCCN=C1C.[Ni] (stereo not given)
inactive: dose: 12.5 mg/kg/injection, schedule: Q04DX002 (ip), vehicle: saline 97 % of control | dose: 25.0 mg/kg/injection, schedule: Q04DX002 (ip), vehicle: saline 97 % of control

CCOC(=O)/C=C(\CBr)OC
inactive: [4] 105 % of control | [5] 98 % of control | dose: 25.0 mg/kg/injection, schedule: Q04DX003 (ip), vehicle: Klucel (hydroxypropylcellulose) (HPC) 90 % of control | dose: 50.0 mg/kg/injection, schedule: Q01DX009 (ip), vehicle: Klucel (hydroxypropylcellulose) (HPC) 94 % of control and 103 % of control | dose: 50.0 mg/kg/injection, schedule: Q04DX003 (ip), vehicle: Klucel (hydroxypropylcellulose) (HPC) 96 % of control | dose: 100.0 mg/kg/injection, schedule: Q04DX003 (ip), vehicle: Klucel (hydroxypropylcellulose) (HPC) 96 % of control

[CH3][Sb]1([CH3])([CH3])[O]S(=O)(=O)[O]1
inactive: dose: 75.0 mg/kg/injection, schedule: Q01DX001 (ip), vehicle: saline 97 % of control | dose: 150.0 mg/kg/injection, schedule: Q01DX001 (ip), vehicle: saline 102 % of control | dose: 300.0 mg/kg/injection, schedule: Q01DX001 (ip), vehicle: saline 105 % of control

COC(C#N)C(O)(c1ccccc1)c1ccccc1 (stereo not given)
inactive: dose: 75.0 mg/kg/injection, schedule: Q01DX001 (ip), vehicle: other 94 % of control | dose: 150.0 mg/kg/injection, schedule: Q01DX001 (ip), vehicle: other 100 % of control

CCOC(=O)CCC1(CN2c3ccccc3Sc3ccccc32)CCN(C)C1 (stereo not given)
inactive: [20] 87 % of control

COC(=O)/C=C(\C)Sc1ccc(Cl)cc1
inactive: dose: 100.0 mg/kg/injection, schedule: Q04DX002 (ip), vehicle: other 91 % of control | dose: 200.0 mg/kg/injection, schedule: Q04DX002 (ip), vehicle: other 98 % of control | dose: 400.0 mg/kg/injection, schedule: Q04DX002 (ip), vehicle: other 102 % of control

CC1(C)CCC(C)(C)C2CC3C(CC21)C(C)(C)CCC3(C)C (stereo not given)
inactive: [20] 109 % of control | [21] 112 % of control | [22] 100 % of control

c1cc(C2OCCO2)cs1
inactive: [11] 86 % of control | [12] 86 % of control

COc1ccc(OC)c2c1CCCC2
inactive: dose: 100.0 mg/kg/injection, schedule: Q01DX009 (ip), vehicle: Klucel (hydroxypropylcellulose) (HPC) 106 % of control | dose: 200.0 mg/kg/injection, schedule: Q01DX009 (ip), vehicle: Klucel (hydroxypropylcellulose) (HPC) 117 % of control

COc1ccc(-n2cccc2C(N)=O)cc1OC
inactive: [6] 103 % of control | [7] 100 % of control | [23] 90 % of control

Cc1c(Cl)c(C)c(Cl)c(Cl)c1Cl
inactive: [20] 106 % of control | dose: 100.0 mg/kg/injection, schedule: Q01DX009 (ip), vehicle: saline 101 % of control | [8] 89 % of control | [21] 98 % of control | dose: 200.0 mg/kg/injection, schedule: Q01DX009 (ip), vehicle: saline 108 % of control | [9] 87 % of control | [22] 96 % of control | dose: 400.0 mg/kg/injection, schedule: Q01DX009 (ip), vehicle: saline 94 % of control | [10] 94 % of control

COC(=O)c1nc(Cl)nc(I)c1Cl
inactive: dose: 12.5 mg/kg/injection, schedule: Q01DX001 (ip), vehicle: other 102 % of control | dose: 25.0 mg/kg/injection, schedule: Q01DX001 (ip), vehicle: other 90 % of control

COc1ccc(NC(=S)N(CCC#N)C2CCCCC2)cc1
inactive: [6] 101 % of control | [7] 94 % of control | [23] 90 % of control

Cc1cc(Cl)c(N)[c]([Hg][I])c1F
inactive: dose: 12.0 mg/kg/injection, schedule: Q01DX001 (ip), vehicle: Klucel (hydroxypropylcellulose) (HPC) 90 % of control | dose: 25.0 mg/kg/injection, schedule: Q01DX001 (ip), vehicle: Klucel (hydroxypropylcellulose) (HPC) 86 % of control | dose: 50.0 mg/kg/injection, schedule: Q01DX001 (ip), vehicle: Klucel (hydroxypropylcellulose) (HPC) 92 % of control

CCOC(=O)c1cnc(NCC(C)(C)C)[nH]c1=O
inactive: [20] 95 % of control | [21] 91 % of control | [22] 91 % of control

COc1ccc(NC(C)=O)cc1OC
inactive: [1] 95 % of control | [2] 98 % of control | [3] 92 % of control
